From the NIST ThermoML archive (doi:10.1016/j.jct.2016.10.040)
Numbers after ± are expanded uncertainties.

Legend:
[1] = Crystal; DTA
[2] = Molar enthalpy of transition or fusion; details: Crystal; DSC

Structure (SMILES): O=Cc1cccc([N+](=O)[O-])c1 [3-nitrobenzaldehyde]
- Normal melting temperature [1]: 55.07 ± 1.1 °C
- Molar enthalpy of transition or fusion [2]: 4.76 ± 0.217 kcal/mol
